Assay results taken from patent US11634452B2, “Compounds for treating neurodegenerative disorders” (ETHNODYNE, priority 2017, dated 2023).

Tests used:
[1] = tested on: primary rat cortical neurons injured with Aβ1-42; assay: Neuroprotective effect on an in vitro model of Alzheimer disease; assay type: cell-based
Protocol: These peptides contribute to cerebrovascular lesions and are neurotoxic. This study investigated the neuroprotective effect of the plant extract of the invention on rat primary cortical cultures following exposure to Aβ1-42 in an in vitro AD model (Callizot. N., et al., 2013).
Rat cortical neurons were cultured as described in Example 6.
The cortical neurons were intoxicated with amyloid beta peptides solutions after 11 days of culture in presence of tested compound CR777.
Briefly, Aβ1-42 peptide (Batch: APN09080-1-1, Abcam, United Kingdom) was dissolved in the defined culture medium B27 mentioned above, devoid of serum, at an initial concentration of 40 μmol/L. This solution was gently agitated for 3 days at 37° C. in the dark and immediately used after being properly diluted in culture medium to the concentrations used (20 μM corresponding to 2 μM of AβO, measuring by WB, for survival, neurite network, tau phosphor and caspase 3 activation and 2.5 μM corresponding to 0.25 μM of AβO, for synapses evaluation).
CR777 was solved in DMSO at 10 mM and diluted in culture medium at different concentrations (see table below). The compound was tested on one primary cortical culture in 96 well plates (6 wells per conditions), and was pre-incubated 1 hour before Aβ1-42 application for 24 hours.
24 hours after intoxication, the cell culture supernatant was taken off and the cortical neurons were fixed by a cold solution of ethanol (95%) and acetic acid (5%) for 5 min at −20° C. • Plate 1: Immunostainning (MAP-2/Tau Phosphor)
After permeabilization with 0.1% of saponin, cells were incubated for 2 hours with a) a mouse monoclonal antibody anti phosphoT at dilution of 1/400 in PBS containing 1% fetal calf serum and 0.1% of saponin and b) a chicken polyclonal antibody anti microtubule-associated-protein 2 (MAP-2) at dilution of 1/1000 in PBS containing 1% fetal calf serum and 0.1% of saponin (this antibody stains specifically cell bodies and neurites, allowing study of neuronal cell survival and neurite network).
(§1) For each condition, 30 pictures/well (representative of ˜the all well area) were taken automatically using ImageXpress (Molecular Devices) with 20× magnification. All images were taken with the same conditions. Analysis were performed automatically by using Custom Module Editor (Molecular Devices).
The following endpoints were investigated per culture well: • The total neuron survival (MAP-2 staining), • The neurite network (MAP-2 staining) and • hyperphophorylation of T protein (pT) into neurons (pT/MAP-2). • Plate 2: Immunostainning (MAP-2/Caspase 3)
as §1, with “Devices). • The total number of caspase 3 positive neuron (overlapping caspase3/MAP-2) were investigated per culture well:” for “Devices).”
Data is expressed in percentage of control conditions (no injury, no compound=100%). All values are expressed as mean+/−SEM (standard error of the mean) from 6 wells per condition per culture. Neuro-Sys performed graphs and statistical analyses on the different conditions (ANOVA followed by Dunnett's test when allowed, using GraphPad Prism software version 5.0).

[2] = tested on: primary rat dopaminergic neurons (TH positive neurons) injured with MPP+; assay: Neuroprotective effect following exposure to MPP+; assay type: cell-based
Protocol: This study investigated the neuroprotective effect of the Compound CR777 of example 1 on rat primary mesencephalic cultures following exposure to 1-methyl-4-phenyl pyridinium (MPP^+).
Rat dopaminergic neurons were cultured as described by Visanji et al., 2008 FASEB J. 2008; 22(7):2488-97. Briefly, the midbrains obtained from 15-day old rat embryos (Janvier Labs, France) were dissected under a microscope. The embryonic midbrains were removed and placed in ice-cold medium of Leibovitz (L15, Batch 4290114, Pan Biotech, Germany) containing 2% of Penicillin-Streptomycin (PS, Batch 1451013, Pan Biotech) and 1% of bovine serum albumin (BSA, Batch K030913, Pan Biotech). The ventral portion of the mesencephalic flexure, a region of the developing brain rich in dopaminergic neurons, was used for the cell preparations.
The midbrains were dissociated by trypsinisation for 20 min at 37° C. […] The cells were seeded in supplemented neurobasal medium at a density of 40 000 cells/well in 96 well-plates pre-coated with poly-L-lysine (Batch 3102256, Corning Biocoat) and maintained in a humidified incubator at 37° C. in 5% CO2/95% air atmosphere. Half of the medium was changed every 2 days with fresh medium.
On day 6 of culture, the medium was removed and fresh medium was added, without or with MPP+ at 4 μM diluted in control medium and let for 48 h. […]
The following conditions were assessed: (6 wells per condition) • Control (vehicle) • Compound CR777 of example 1 (1 pmol/L) • Compound CR777 of example 1 (10 pmol/L) • Compound CR777 of example 1 (100 pmol/L) • Compound CR777 of example 1 (1 nmol/L) • Compound CR777 of example 1 (10 nmol/L) • Compound CR777 of example 1 (100 nmol/L) • Compound CR777 of example 1 (1 μmol/L) • Compound CR777 of example 1 (10 μmol/L) […]
Data were expressed in percentage of control conditions (no injury, no compound=100%). All values were expressed as mean+/−SEM (standard error mean) of the 6 wells with statistical analyses on the different conditions (ANOVA followed by Dunnett's test when allowed, using GraphPad Prism software).

[3] = CR777 1 nM to 1 μM added 1 h before Aβ1-42 (20 μM, 24 h)
[4] = CR777 all doses (1 nM to 1 μM), Aβ1-42 20 μM, 24 h

`CC1=C(CO)C(=O)O[C@@H]([C@@H](C)[C@H]2CCC3C4C[C@H](SC[C@H](NC(=O)CC[C@@H](N)C(=O)O)C(=O)NCC(=O)O)[C@]5(O)[C@@H](O)C=CC(=O)[C@]5(C)C4CC[C@@]32C)C1` (stereo partly drawn) [CR777] was tested, and the neurite network [1, 3] was “significant protective effect”, the neuron survival [1, 3] was “significant protective effect” and the “caspase 3 activation” value [1, 4] was “decrease of caspase 3 activation”. The tau hyperphosphorylation [1, 4] was “significant decrease”, the “TH positive neuron survival” value ([2]; added 1 h before MPP+ (4 μM, 48 h), all concentrations 1 pmol/L to 10 μmol/L, more particularly 10 to 100 nmol/L) was “significantly protected neurons from death” and the “neuro-protective effect on MPP+ induced injuries” value ([2]; concentrations between 10 and 100 nmol/L, MPP+ 4 μM, 48 h) was “important and significantly neuro-protective effect”.
